On to `CC(C)(C)NCC(O)COc1ccccc1-c1nc(C(F)(F)F)c[nH]1` (centres undefined), for which the melting point (in general, the temperature, or range, at which the solid turns liquid) is 105 to 107 °C.

With `O=C(Nc1cccc(S(=O)(=O)N2CCCC2CO)c1)c1cnn2c(C3CC3)cc(-c3ccc(Cl)cc3)nc12` (centres undefined), the melting point is 180 to 182 °C.

The molecule `COc1ccccc1-c1[nH]c2cccc3c2c1CCNC3=O` had a melting point of 254 to 255 °C.

`Cc1ccc(C(=O)OCCN(C)C)cc1-n1c(C)cc(OCc2ccccc2CNC(=O)Nc2cc(C(C)(C)C)nn2-c2cccc(OCCO)c2)c(Cl)c1=O`: the melting point is 164 to 165 °C.

As for `Cc1nnc2ncc(-c3ccccc3)cn12`, the melting point was 199 to 200 °C.

The molecule `Cc1c(NC(=O)c2ccc(OC[C@@H]3CCCO3)cc2)ccc2cc(CNCC3(C)COC3)cnc12` had a melting point of 117 to 119 °C.

The molecule `Nc1ccc(Sc2c(NCC3CC3)cc(C(=O)O)cc2S(N)(=O)=O)cc1` registered a melting point of 221 to 223 °C.

Molecule `CN=C(N)Nc1nc(CSCCNC2=NS(=O)N=C2N)cs1` (centres undefined) had a melting point of 86 to 91 °C.

For the molecule `COc1cccc(CCCC(=O)O)c1OC`, the melting point lay within 58 to 59 °C.

Molecule `Cc1ncccc1Cn1c(CO)nc(C(C)C)c1Sc1cc(Cl)cc(Cl)c1` showed a melting point of 127 °C.

In turn, `CCNC(=O)c1cnc(SC)nc1Nc1ccc2[nH]ncc2c1` registered a melting point of 252 to 254 °C.

Regarding `O=C(O)c1cccc2[nH]nnc12`, the melting point is 250 to 252 °C.

As to `Cn1ccnc1S(=O)(=O)CC(=O)C12CC3CC(CC(C3)C1)C2`, the melting point fell in the range of 124 to 125 °C.

In turn, `O=C1CN(C(=O)c2ccc(Cl)cc2)N(Cc2ccc(Cl)cc2)C(=O)N1` returned a melting point of 202 °C.

Molecule `CCOC(=O)NNc1cc(C)c(-c2ccc(C#N)cc2)nn1` registered a melting point of 189 to 191 °C.

`N#Cc1ccc(C2C3=C(CCCC3)NC3=C2C(=O)CCC3)cc1C(F)(F)F` (centres undefined) showed a melting point of 210 to 212 °C.

The molecule `CCOC(=O)N1C[C@@H]2CC[C@H]1C(=O)C2` registered a melting point of 68.5 to 69.5 °C.

Regarding `CC(=O)N1c2ccc(-c3ccc(CN(C)C)cc3)cc2C(Nc2ccccc2)CC1C` (centres undefined), the melting point is 90 °C.

As to `COC(=O)c1[nH]c(C)c(C)c1OCC1CO1` (centres undefined), the melting point lay within 85 to 87 °C.

Regarding `CCOC(=O)N1CCc2nnc(N(C)N)cc2C1`, the melting point lay within 121 to 123 °C.

`CC(C)c1cc(-c2ccc(F)c3ccccc23)nc(NS(C)(=O)=O)n1` returned a melting point of 276 to 277 °C.

Consider `O=C(O)CCCOc1cccc(CCCCCCOc2ccc3c(c2CCCc2ccccc2)CCCC3=O)c1CCC(=O)O`, for which the melting point was 89 to 91 °C.

Turning to `O=C(C=C(c1cc(Cl)cc(Cl)c1)C(F)(F)F)c1ccc(C(=O)Nc2ncc(Cl)cn2)cc1`, the melting point was 71 to 76 °C.

The molecule `CCCn1c(=O)c2[nH]c(/C=C/c3ccc4c(c3)OCO4)nc2n(CCC)c1=O` showed a melting point of over 270 °C.

Take `COc1cc(OC)nc(NC(=O)NS(=O)(=O)c2nn(C)c3cccc(F)c23)n1`: the melting point was 205 to 209 °C.

Molecule `Cc1ccc(CN2CCC(NC(=O)NC(=O)c3ccccc3)CC2)cc1C` had a melting point of 239 to 240 °C.

For `O=C(O)CCCCC=Cc1cccc(Cc2ccccc2)c1`, the melting point amounted to 68 °C.

As to `CCC(Cc1ccc(C(C)C(=O)O)cc1)C(C)O` (centres undefined), the melting point lay within 100 to 103 °C.

In turn, `O=C(c1ccc(O)cc1)N1CC=CCC1` came in with a melting point of 202 to 206 °C.

Molecule `CN(c1ccc(Cl)cc1[N+](=O)[O-])S(=O)(=O)C=Cc1ccccc1` yielded a melting point of 162 to 164 °C.

`CO[C@@H]1[C@H](O)[C@@H](CO)O[C@H]1n1cnc2c(N[C@H](C)Cc3sccc3Cl)ncnc21` gave a melting point of 75 to 76 °C.

In the case of `CON=C(C(=O)O)c1nc(NC=O)sc1Br`, the melting point fell in the range of 165 to 167 °C.

Molecule `Clc1ccc(-c2noc3ccc(CBr)cc23)cc1` displayed a melting point of 142 °C.

Regarding `CCCC(=NOCC)C1=C(O)CC(c2ccc(C=O)cc2)CC1=O` (centres undefined), the melting point lay in the range of 81 to 82 °C.

On to `CN1C(C)(C#N)CCC1(C)C#N` (centres undefined), for which the melting point fell in the range of 81 to 83 °C.

As to `CCCCC1CCc2c(OCc3ccc4ccccc4n3)cccc2C1O` (centres undefined), the melting point was 130 to 133 °C.

Molecule `O=C(O)COc1ccc2c(c1)Nc1ccccc1S2` yielded a melting point of 180 to 181 °C.

Take `NCc1cccc2c1CN(c1nc3c(cc1F)c(=O)c(C(=O)O)cn3C1CC1)C2`: the melting point is over 300 °C.

For `COC(=O)c1c(Cl)cc(Cl)cc1NC(=O)CSc1ccc(N)cc1`, the melting point was 114 to 116 °C.

Molecule `N#Cc1ccc([C@H]2CC[C@H](O)CC2)cc1` had a melting point of 120 to 122 °C.

`CCOc1ccc(-c2cc3ccccc3[nH]2)cc1OC`: the melting point is 177 °C.

Regarding `OC(CN1CC=C(c2ccc(Cl)cc2)CC1)c1ccc(Cl)cc1` (centres undefined), the melting point lay in the range of 152 to 153 °C.

`CCn1cc(C(=O)O)c(=O)cc1-c1cccc(Cl)c1` yielded a melting point of 212 to 213 °C.

`O=c1ncc(Cl)cn1CSCc1ccccc1` yielded a melting point of 186 °C.

`Cn1cncc1C(C)(c1ccc(Cl)cc1)c1ccc2c(c1)c(-c1cccc(Cl)c1)cc(=O)n2C` (centres undefined) had a melting point of 204 °C.

For the molecule `COc1ccc(C(O)(c2ccc(OC)cc2)C2CCNCC2)cc1`, the melting point is 153 to 155 °C.

In turn, `CC1(C)c2cc(OS(C)(=O)=O)ccc2OC1Cl` (centres undefined) had a melting point of 59 to 61 °C.

As to `CC(C)(c1ccc(O)cc1)c1ccc(-c2ccc(C(C)(C)c3ccc(O)cc3)cc2)cc1`, the melting point lay in the range of 195 to 196 °C.

The molecule `C(=C(c1ccccc1)c1ccccc1)c1ccc2c(c1)Sc1cc(C=C(c3ccccc3)c3ccccc3)ccc1N2c1ccccc1` gave a melting point of 232 to 237 °C.

In the case of `CCCCCCC[C@H]1O[C@H]1C(=O)O`, the melting point was 53 to 55 °C.

For `CCCCCC(CC(=O)Nc1cc(C(N)=O)ccc1C(C)(C)C)c1ccc(C)cc1OC` (centres undefined), the melting point lay within 175 to 177 °C.

`CCC1c2cccn2-c2ccc(F)cc2N1S(=O)(=O)c1ccc(O)c(C)c1` (centres undefined) displayed a melting point of 175 to 177 °C.

In turn, `O=C1CSC(c2cccnc2)N1` (centres undefined) yielded a melting point of 135 to 137 °C.

In turn, `CC(C)(C)OC(=O)N[C@@H]1CCCC[C@H]1OCC(=O)O` (relative stereo) registered a melting point of 205 to 207 °C.

Molecule `CCC(=O)N1c2ccccc2CC1C(=O)O` (centres undefined) yielded a melting point of 173 to 175 °C.

`COc1ccccc1Nc1nc(-c2ccccn2)cs1` registered a melting point of 165 to 166 °C.

Turning to `CC(C)(C)C(=O)c1c(CC(C)(C)C(=O)O)n(Cc2ccc(Cl)cc2)c2ccc(OCc3ccc4occc4n3)cc12`, the melting point amounted to 160 °C.

Molecule `C=CCNC(=O)CCNc1nc(NCC=C)nc2c(C)csc12` registered a melting point of 95 to 96 °C.

The molecule `COC1=C2C(=C(C(C)C)CC1(C)OC)C(=O)N(CSc1nnnn1-c1ccccc1)S2(=O)=O` (centres undefined) showed a melting point of 169 to 171 °C.

`COc1ccc(C(O)(c2ccc3nc(Cl)nc(-c4cccc(Cl)c4)c3c2)c2cncn2C)cc1` (centres undefined) registered a melting point of 144 °C.

For the molecule `NC(CC(=O)O)c1ccccc1[N+](=O)[O-]` (centres undefined), the melting point was 222 °C.

As to `COc1ccc(C2=NNC(=O)CC2c2ccncc2)cc1` (centres undefined), the melting point was 100 to 102 °C.

Regarding `Cc1ccc(S(=O)(=O)Cl)c2c1CCN(C(=O)C(F)(F)F)C2`, the melting point is 152 to 153 °C.

For the molecule `CCCCCCCCCCCCc1ccc(S(=O)(=O)Nc2nnc(C(C)(C)C)s2)cc1`, the melting point is 117 to 118 °C.

In turn, `COc1ccc(-c2cc(=O)n(CCc3ccccc3)nc2-c2ccc(OC)cc2)cc1` gave a melting point of 140 °C.

For the molecule `CN1CC2C(C1)C2Nc1ncc2cc(-c3ccccc3Cl)c(=O)n(C3CC3)c2n1` (centres undefined), the melting point fell in the range of 190 to 191 °C.

`O=C(CCC(=O)N1CCC(c2ccc(Cl)cc2)CC1)c1ccc2c(c1)CCN(Cc1ccccc1)CC2` had a melting point of 133 to 134 °C.

The molecule `O=C(O)[C@@H]1Cc2cc(O)c(O)cc2CN1C(=O)c1ccccc1` displayed a melting point of 189 to 192 °C.

For the molecule `CN1CCN(c2ccc(/C=C/C(=O)O)cc2)CC1`, the melting point was in the range of 223 to 226 °C.

As to `O=Cc1cc(OCc2ccccc2)c(OCc2ccccc2)cn1`, the melting point stood at 104 °C.

Molecule `CCCN1C(=O)CC(=O)N(c2ccccc2)c2cc(Cl)ccc21` gave a melting point of 192 to 194 °C.

`COC(=O)CCCc1cc2nc(Cl)ccc2n1S(=O)(=O)c1cccc(-c2ccnc(C)n2)c1` yielded a melting point of 140 to 144 °C.

For the molecule `CC(C)c1nn2ccccc2c1C(O)C(C)(C)C` (centres undefined), the melting point was 95 °C.

`CC(C)(C)OC(=O)N[C@H](C(=O)N1CCC[C@H]1C(=O)NC1CCc2nc(N)sc2C1)C(c1ccccc1)c1ccccc1` (some centres undefined) registered a melting point of 127 to 130 °C.

Molecule `COC(=O)Nc1cn2cc(S(=O)c3ccccn3)ccc2n1` (centres undefined) displayed a melting point of 231 to 235 °C.

`N#Cc1ccc(OCc2ccc3ncoc3c2)cc1OC(C(=O)O)c1ccccc1Cl` (racemic) gave a melting point of 172 to 178 °C.

For the molecule `C[C@]1(Cn2ccnc2)[C@H](C(=O)O)N2C(=O)C[C@H]2S1(=O)=O`, the melting point is 161 °C.

In turn, `Cc1nn(-c2ccc(F)cc2)cc1C(=O)O` yielded a melting point of 194 to 195 °C.

Turning to `CCOc1cc2c(cc1OC)C(c1ccc(C(=O)N3CCOCC3)cc1)=N[C@@H]1CCOC[C@H]21`, the melting point was in the range of 116 to 120 °C.

With `Cc1[nH]c(=O)n(-c2cc(C(=O)OC(C)C)c(Cl)cc2F)c(=O)c1[N+](=O)[O-]`, the melting point fell in the range of 202 to 205 °C.

Turning to `O=C(Nc1cccc(I)c1)C1CC1`, the melting point turned out to be 112 °C.

For `O=C(O)/C=C/c1ccc2c(/C=C/C(=O)O)c[nH]c2c1`, the melting point was over 360 °C.

`COC(=O)C=C1C(=O)N(C)C(=O)N1C` showed a melting point of 49.5 °C.

Molecule `CC(C)n1c(C=O)c(-c2ccc(F)cc2)c(-c2ccc(F)cc2)c1C(=O)O` came in with a melting point of 228 to 230 °C.

Regarding `Cc1cccc2nc3n(c12)CC(c1ccccn1)S3=O` (centres undefined), the melting point is 148 °C.

`Cc1ccc(S(=O)(=O)Oc2cc(Cl)c(C=O)c(Cl)c2)cc1` gave a melting point of 77 to 80 °C.

Regarding `C#Cc1ccc(C#Cc2ccncc2)s1`, the melting point lay within 134 to 136 °C.

In turn, `O=C(c1ccc(Cl)cc1)N1CCc2nnc(Cl)cc2C1` had a melting point of 170 to 172 °C.

For the molecule `CC1(C)CCC(C)(C)c2cc(COc3cccc(C(=O)O)c3-c3ccc(CCO)cc3)ccc21`, the melting point lay in the range of 201 to 203 °C.
